From the NIST ThermoML archive (doi:10.1016/j.jct.2019.02.012)

Assay: mn = molality of the nth substance listed, in mol/kg
Settings: 100 kPa, Liquid, Pycnometric method

O=C(O)[C@@H]1CCCN1 [L-proline] + O
mass density [kg/m3]
Settings	298.15 K	303.15 K	308.15 K	313.15 K	318.15 K
m1 = 0.025	997.86	996.45	994.82	992.99	991.02
m1 = 0.05	998.65	997.24	995.6	993.77	991.79
m1 = 0.075	999.43	998.01	996.37	994.53	992.55
m1 = 0.1	1000.2	998.77	997.12	995.28	993.29
m1 = 0.125	1000.96	999.52	997.86	996.01	994.02

CN(C)C(=N)NC(=N)N.Cl [N,N-dimethylimidodicarbonimidic diamide hydrochloride] + O
mass density [kg/m3]
Settings	298.15 K	303.15 K	308.15 K	313.15 K	318.15 K
m1 = 0.05	998.89	997.46	995.83	993.99	992.01
m1 = 0.1	1000.77	999.32	997.67	995.82	993.83
m1 = 0.15	1002.66	1001.21	999.56	997.69	995.69
m1 = 0.2	1004.6	1003.12	1001.46	999.59	997.6
